These are literature values, as cited in US11291622B2, “Method for dyeing keratinous material, comprising the use of an organosilicon compound, a dyeing compound and a silicon oil” (Henkel AG & Co. KGaA, priority 2018, dated 2022).

Read-outs that look alike come from different tables or passages of the source.

Turning to `CCN(Cc1cccc(S(=O)(=O)[O-])c1)c1ccc(C(=C2C=CC(=[N+](CC)Cc3cccc(S(=O)(=O)[O-])c3)C=C2)c2ccccc2S(=O)(=O)[O-])cc1.[Na+].[Na+]` [Acid Blue 9], the solubility in water entry (25° C.) was “more than 20 % by weight”.

With `O=S(=O)([O-])c1ccc(N=Nc2c(O)ccc3ccccc23)cc1.[Na+]` [Acid Orange 7, sodium salt of 4-[(2-hydroxy-1-naphthyl)azo]benzene sulphonate], for the setting “25° C.”, the solubility in water entry is recorded as “more than 7 g/L”.

In the case of `Nc1cc(S(=O)(=O)[O-])cc2cc(S(=O)(=O)[O-])c(N=Nc3ccccc3)c(O)c12.[Na+].[Na+]` [Acid Red 33, diantrium salt of 5-amino-4-hydroxy-3-(phenylazo)-naphthalene-2,7-disulphonate], the solubility in water entry (25° C.) is recorded as “about 2.5 g/L”.

With `O=C([O-])C1=NN(c2ccc(S(=O)(=O)[O-])cc2)C(=O)C1N=Nc1ccc(S(=O)(=O)[O-])cc1.[Na+].[Na+].[Na+]` (centres unmarked) [Acid Yellow 23, trisodium salt of 4,5-dihydro-5-oxo-1-(4-sulfophenyl)-4-((4-sulfophenyl)azo)-1H-pyrazole-3-carboxylic acid], the “solubility in water” value (at about 25° C.) is reported as “highly soluble in water”.

Consider “mixture of the sodium salts of mono- and disulfonic acids of 2-(2-quinolyl)-1H-indene-1,3(2H)-dione [Acid Yellow 3]”, for which the solubility in water entry (25° C.) is “about 20 g/L”.
